Measured values published in patent publication US4939134A, “26-aminocholesterol and derivatives and analogs thereof in the regulation of cholesterol accumulation in body tissue” (New York University, priority 1988, dated 1990).

What was measured:
HepG2 Cells = assay: Total cell cholesterol in HepG2 hepatocytes; format: cell-based, human; conditions: 96 h, n = 3
Source text: HepG2 cells were obtained from Dr. Barbara Knowles of the Wistar Institute, Pennsylvania. The HepG2 stock monolayers were maintained under the same conditions as the fibroblast monolayers, in a medium comprising MEM supplemented with 10% heat-inactivated FBS, and 1% (v/v) each of penicillin-streptomycin solution, non-essential and essential amino acids, and L-glutamine.
For experiments using HepG2 cells, confluent stock monolayers were washed once with Dulbecco's PBS, dissociated with 0.05-0.02% trypsin-EDTA followed by treatment with deoxyribonuclease I (0.1%), and were seeded (3.0×10^6) under identical conditions. The experimental MEM contained 25% (v/v) D2 O, 9% (v/v) delipidated FBS, and 1% (v/v) each of heat-inactivated FBS, penicillin-streptomycin, essential and non-essential amino acids, L-glutamine and 20 mM HEPES.
(§1) The fibroblast and hepatoblastoma cells were cultured in media containing 25% D2 O and 1% FBS in order to determine de novo cholesterol synthesis under conditions that permit receptor mediated cholesterol transport, according to the method of Easterman & Javitt et al., J. Lipid Res., 26: 950-954 (1985). Dish cultures of each cell type were prepared, and 26-aminocholesterol, dissolved in N,N-dimethylformamide (DMF, 9 ul per dish, 0.3% v/v) was added to each culture. The cells were then grown to confluence (96 hours, day 5). […] Duplicate or triplicate dishes containing 9 ul of DMF, but without 26-aminocholesterol, were used as controls.
(§2) After 96 hours of incubation, medium was removed from the cell cultures, and the cells were washed with Dulbecco's PBS and were harvested with 0.05% trypsin - 0.02% EDTA. The protease was deactivated with an equivolume aliquot of soybean trypsin inhibitor, and the resulting cell suspension was centrifuged for 5 minutes at 500xg. An internal standard of 5B-cholestan-3B-ol was added to the pellets prior to extraction with an 8:4:3 chloroform:methanol:water Folch mixture, as described in Folch et al., J. Biol. Chem., 266: 497-509 (1957). An aliquot of the extract was blown to dryness under nitrogen and silylated with 2:1:1 MSTFA (a sylated reagent supplied by Pierce Co.): toluene:-pyridine. Free cholesterol was determined by gas-liquid chromatography (GLC) on a Perkin-Elmer capillary gas-liquid chromatography model 8320 fitted with a 20 m DE-1 methylsilicon glass column (Supelco). The remaining extract was dried and saponified with 2% ethanolic KOH at 80° C. for one hour. The […] was then re-extracted and total cholesterol was measured by GLC after silylation. Cholesterol ester was calculated as the difference between the total and free cholesterol determinations. Newly synthesized cholesterol was determined by GLC-MS isotope mass ratios, using a Hewlett-Packard GC-MS spectrometer model 5890 fitted with DB-1 methyl silicon 0.18 i.d. 20 m glass column (Supelco), according to the method of J. Lipid. Res., 26: 950-954, supra.
For purposes of comparison, ^125 I-LDL and cholesterol assays were also conducted in cultures prepared according to the above methods, but incubated with 26-hydroxycholesterol in one set of experiments and with the sterol 26-thiacholesterol in another set of experiments. These sterols were obtained according to known methods, similar to those described above for 26-aminocholesterol.

Human Fibroblasts = assay: Total cell cholesterol and percent esterified cholesterol in human fibroblasts; format: cell-based; conditions: 96 h, n = 3
Procedure: Normal LDLR(+) human fibroblasts (GM3440) were obtained from the National Institute of General Medical Sciences Human Genetic Cell Repository. Stock fibroblast monolayers were maintained in T-75 disposable Nunc flasks, in a medium comprising 10 ml of MEM (Eagle's Minimum Essential Medium with Earl's salts, pH 7.4) supplemented with 10% (v/v) fetal bovine serum (FBS), 2% (v/v) non-essential and essential amino acids, 1% (v/v) MEM vitamins, 1% L-glutamine (292 ug/ml), 1% penicillin (100 U/ml)-streptomycin (100 ug/ml). The fibroblast stock was maintained at 37° C. in a humidified atmosphere of 5% CO2 and 95% air.
For experiments using fibroblasts, confluent stock cultures (5-18 passages) were washed once with Dulbecco's PBS (phosphate buffered saline) prior to the addition of 3 ml aliquots of experimental MEM containing 25% (v/v) D2 O, 9% (v/v) dilapidated FBS, 1% FBS (v/v), 1% MEM vitamins and L-glutamine, and 2% of essential and non-essential amino acids and 20 mM HEPES buffer.
as §1
as §2, with “supra. […]” for “supra.”

For `CC(CS)CCC[C@@H](C)[C@H]1CC[C@H]2[C@@H]3CC=C4C[C@@H](O)CC[C@]4(C)[C@H]3CC[C@]12C` (stereo partly drawn) [26-SH], the “TOTAL CHOLESTEROL” value (HepG2 Cells; 5.0 uM) was 25.5 +/- 4.3 ug cholesterol per mg cell pro, the “TOTAL CHOLESTEROL” value (HepG2 Cells; 10.0 uM) was 27.4 +/- 4.0 ug cholesterol per mg cell pro and the “TOTAL CHOLESTEROL” value (HepG2 Cells; 20.0 uM) was 23.2 +/- 1.2 ug cholesterol per mg cell pro. The “% ESTER (Percent Esterified Cholesterol)” value (Human Fibroblasts; 5.0 uM) was 13.6%, the “TOTAL CHOLESTEROL” value (Human Fibroblasts; 5.0 uM) was 26.0 +/- 1.7 ug cholesterol per mg cell pro and the “% ESTER (Percent Esterified Cholesterol)” value (Human Fibroblasts; 10.0 uM) was 31.1%. The “TOTAL CHOLESTEROL” value (Human Fibroblasts; 10.0 uM) was 31.3 + /- 4.5 ug cholesterol per mg cell pro, the “% ESTER (Percent Esterified Cholesterol)” value (Human Fibroblasts; 20.0 uM) was 33.1% and the “TOTAL CHOLESTEROL” value (Human Fibroblasts; 20.0 uM) was 26.1 +/- 1.0 ug cholesterol per mg cell pro.
`C[C@@H](CN)CCC[C@@H](C)[C@H]1CC[C@H]2[C@@H]3CC=C4C[C@@H](O)CC[C@]4(C)[C@H]3CC[C@]12C` [26-NH2, 26-aminocholesterol] was tested, and the “TOTAL CHOLESTEROL” value (HepG2 Cells; 0.156 uM) was 30.6 +/- 3.7 ug cholesterol per mg cell pro, the “TOTAL CHOLESTEROL” value (HepG2 Cells; 0.312 uM) was 25.0 +/- 0.6 ug cholesterol per mg cell pro and the “TOTAL CHOLESTEROL” value (HepG2 Cells; 0.625 uM) was 28.8 +/- 1.8 ug cholesterol per mg cell pro. The “% ESTER (Percent Esterified Cholesterol)” value (Human Fibroblasts; 0.156 uM) was 26.4%, the “TOTAL CHOLESTEROL” value (Human Fibroblasts; 0.156 uM) was 27.9 +/- 5.3 ug cholesterol per mg cell pro and the “% ESTER (Percent Esterified Cholesterol)” value (Human Fibroblasts; 0.312 uM) was 18.6%. The “TOTAL CHOLESTEROL” value (Human Fibroblasts; 0.312 uM) was 31.5 +/- 6.1 ug cholesterol per mg cell pro, the “% ESTER (Percent Esterified Cholesterol)” value (Human Fibroblasts; 0.625 uM) was 6.4% and the “TOTAL CHOLESTEROL” value (Human Fibroblasts; 0.625 uM) was 20.3 +/- 6.4 ug cholesterol per mg cell pro.
For `CC(CO)CCC[C@@H](C)[C@H]1CC[C@H]2[C@@H]3CC=C4C[C@@H](O)CC[C@]4(C)[C@H]3CC[C@]12C` (stereo partly drawn) [26-OH, 26-hydroxycholesterol], the “TOTAL CHOLESTEROL” value (HepG2 Cells; 0.625 uM) was 24.7 +/- 2.8 ug cholesterol per mg cell pro, the “% ESTER (Percent Esterified Cholesterol)” value (Human Fibroblasts; 0.625 uM) was 28.7% and the “TOTAL CHOLESTEROL” value (Human Fibroblasts; 0.625 uM) was 24.7 +/- 2.8 ug cholesterol per mg cell pro.
